From patent US20100119458A1, “Compositions Containing Metal Oxide Particles and Their Use” (Spago Imaging AB, priority 2007, published 2010)

Experiment: MRI measurements of relaxation rates and relaxivities
Format: physicochemical
Source text: where ρ=spin density, TE=echo time and TR=repetition time. Contrast agents that are paramagnetic are used to improve the resolution in the images. They have effects on both T1 and T2 but some agents have predominant effects on either T1 or T2. […] Gadolinium (III+) has a predominant effect on T1 and therefore has been used a positive contrast agent (increased MR signal). Iron (III+) has a predominant effect on T2 and has therefore been used as a negative contrast agent (decreased MR signal). The relaxation rate (1/Ti, i=1,2 for hydrogen) observed is proportional to the concentration C of a contrast agent used, i.e.
1/Ti(observed)=1/Ti(inherent)+riC
where 1/Ti (observed) is the relaxation rate in the presence of the contrast agent, 1/Ti (inherent) is the inherent tissue relaxation rate, and the proportionality constant ri is called the relaxivity constant for the contrast agent concerned. See Engström et al (Magn Reson Mater Phy 19 (2006) 180-186 and WO 2006031190 (Uvdal et al) and references cited therein.
15 MRI measurements: See Engström et al., Magn Reson Mater Phy, 19 (2006) 180-186.

In the case of `O=C([O-])CN(CCN(CC(=O)[O-])CC(=O)O)CCN(CC(=O)[O-])CC(=O)O.[Gd+3]` [Gd^3+-DTPA], the “1/T1 (1 mM)” value (relaxation rate at 1 mM) is reported as 0.005 ms^−1 and the 1/T2 (relaxation rate, stated in words) is reported as “lower values”.
